Key:
Assay type in all cases: cell-based
Miapaca-2 cells = test: MiaPaca-2 combination cell proliferation assay (1) with cobimetinib, 96-well; conditions: inhibition of cell proliferation, read-out: MiaPaca-2 Combo (1) IC50
Experimental: MiaPaca-2 Combination Cell proliferation Assay (1)
Miapaca-2 cells (catalog #CRL-1420) are obtained from the American Type Culture Collect (ATCC, Manassas, VA). Briefly, cells were grown in DMEM supplemented with 10% characterized fetal bovine serum (Invitrogen, Carlsbad, CA), 2.5% New Zealand sourced horse serum and 1% Penicillin/Streptomycin/L-Glutamine at 37° C., 5% CO2, and 95% humidity. Cells are expanded until reaching 70-95% confluency at which point they are subcultured or harvested for assay use. A serial dilution of test compound was dispensed into multiple 96-well black clear bottom plates in triplicate. A serial dilution of complete growth medium containing cobimetinib was prepared at twice the final concentration and 100 μL was dispensed across the test compound titration in triplicate. Three thousand cells are added per well in 100 μL complete growth medium in each 96-well plate. Plates are incubated for 67-72 hours at 37° C., 5% CO2, and 95% humidity. At the end of the incubation, 40 μL of a 440 μM solution of resazurin (Sigma, St. Louis, MO) in PBS is added to each well of the plate and plates are incubated for an additional 5-7 hours at 37° C., 5% CO2, and 95% humidity. Plates are read on a Synergy2 or equivalent reader (Biotek, Winooski VT) using an excitation of 540 nm and an emission of 600 nm. Drug synergy was assessed via BLISS analysis in the Combenefit software (Cancer Research UK Cambridge Institute, Cambridge, UK). Data is analyzed using Prism software (GraphPad, San Diego, CA) to calculate IC50 values. Shifts in test compound IC50 values are reported from top-constrained combination therapy curves.

H2405 cells = test: H2405 cell proliferation assay (2), resazurin, 384-well; conditions: Homo sapiens, NCI-H2405, inhibition of cell proliferation, 67-72 h
Experimental: H2405 Cell Proliferation Assay (2)
H2405 cells (catalog #CRL-5994) are obtained from the American Type Culture Collect (ATTC, Manassas, VA). Briefly, cells were grown in RPMI 1640 supplemented with 5% characterized fetal bovine serum (Invitrogen, Carlsbad, CA) and 1% Penicillin/Streptomycin/L-Glutamine at 37° C., 5% CO2, and 95% humidity. Cells are expanded until reaching 70-95% confluency at which point they are sub-cultured or harvested for assay use. A serial dilution of test compound is dispensed into a 384-well black clear bottom plate in triplicate. Seven hundred fifty cells are added per well in 50 μL complete growth medium in the 384-well plate. Plates are incubated for 67-72 h at 37° C., 5% CO2, and 95% humidity. At the end of the incubation, 10 μL of a 440 μM solution of resazurin (Sigma, St. Louis, MO) in PBS is added to each well of the plate and plates are incubated for an additional 5-6 h at 37° C., 5% CO2, and 95% humidity. Plates are read on a Synergy2 or equivalent reader (Biotek, Winooski VT) using an excitation of 540 nm and an emission of 600 nm. Data is analyzed using Prism software (GraphPad, San Diego, CA) to calculate IC50 values

WM3928 cells = test: WM3928 cell proliferation assay (2), resazurin, 384-well; conditions: inhibition of cell proliferation, 67-72 hours
Experimental: WM3928 Cell Proliferation Assay (2)
WM3928 cells (#WM3928-01-0001) are obtained from Rockland Immunochemicals Inc (Gilbertsville, PA). Briefly, cells were grown in MCDB 153 medium (Sigma, #M7403, St. Louis, MO) supplemented with 20% Leibovitz's L-15 (ThermoFisher #11415-064, Waltham, MA), 2% heat inactivated fetal bovine serum (ThermoFisher, #A3840001, Waltham, MA), 5 μg/mL Insulin (Bovine Pancreas) (Sigma, #I0516, St. Louis, MO), 1.68 mM Calcium Chloride (Sigma, #C-34006, St. Louis, MO) and 1% Penicillin/Streptomycin/L-Glutamine (ThermoFisher #10378016, Waltham, MA) at 37° C., 5% CO2, and 95% humidity. Cells are expanded until reaching 70-95% confluency at which point they are sub-cultured or harvested for assay use. Using the Beckman Coulter Echo 650, a serial dilution of test compound is dispensed into a 384-well black clear bottom plate in triplicate. Seven hundred fifty cells are added per well in 50 μL complete growth medium in the 384-well plate. Plates are incubated for 67-72 hours at 37° C., 5% CO2, and 95% humidity. At the end of the incubation, 10 μL of a 440 μM solution of resazurin (Sigma, #199303, St. Louis, MO) in PBS is added to each well of the plate and plates are incubated for an additional 3-6 hours at 37° C., 5% CO2, and 95% humidity. Plates are read on a Synergy2 or equivalent reader (Biotek, Winooski VT) using an excitation of 540 nm and an emission of 600 nm. Data is analyzed using Prism software (GraphPad, San Diego, CA) to calculate IC50 values.

WM3629 cells = test: WM3629 cell proliferation assay (1), resazurin, 96-well; conditions: inhibition of cell proliferation
Experimental: WM3629 Cell Proliferation Assay (1)
WM3629 cells (#WM3629-01-0001) are obtained from Rockland Immunochemicals Inc (Gilbertsville, PA). Briefly, cells were grown in MCDB 153 medium (Sigma, #M7403, St. Louis, MO) supplemented with 20% Leibovitz's L-15 (ThermoFisher #11415-064, Waltham, MA), 2% heat inactivated fetal bovine serum (ThermoFisher, #A3840001, Waltham, MA), 5 μg/mL Insulin (Bovine Pancreas) (Sigma, #I0516, St. Louis, MO), 1.68 mM Calcium Chloride (Sigma, #C-34006, St. Louis, MO) and 1% Penicillin/Streptomycin/L-Glutamine (ThermoFisher #10378016, Waltham, MA) at 37° C., 5% CO2, and 95% humidity. Cells are expanded until reaching 70-95% confluency at which point they are subcultured or harvested for assay use. A serial dilution of test compound is dispensed into a 96-well black clear bottom plate in triplicate. Four thousand five hundred cells are added per well in 200 μL complete growth medium in the 96-well plate. Plates are incubated for 67-72 hours at 37° C., 5% CO2, and 95% humidity. At the end of the incubation, 40 μL of a 440 μM solution of resazurin (Sigma, #199303, St. Louis, MO) in PBS is added to each well of the plate and plates are incubated for an additional 6-7 hours at 37° C., 5% CO2, and 95% humidity. Plates are read on a Synergy2 or equivalent reader (Biotek, Winooski VT) using an excitation of 540 nm and an emission of 600 nm. Data is analyzed using Prism software (GraphPad, San Diego, CA) to calculate IC50 values.

In the case of `Cc1cc(F)c(NC(=O)NCCC2(C(F)(F)F)CC2)cc1-c1cc(OCCO)nc(C2CCOCC2)c1` [Example 24], the IC50 (Miapaca-2 cells) is reported as ≤ 100 nM.

With `CC(=O)Nc1cc(-c2cc(-c3cc(NC(=O)NCCC4(C)CC4)c(F)cc3C)cc(OCCO)n2)ccn1` [Example 33] the IC50 (Miapaca-2 cells) was ≤ 100 nM.

With `CC(=O)Nc1cc(-c2cc(-c3cc(NC(=O)NCCC4(C)CC4)c(F)cc3C)cc(C)n2)ccn1` [Example 55] the IC50 (Miapaca-2 cells) was ≤ 100 nM.

For `CC(=O)Nc1cc(-c2cc(-c3cc(NC(=O)NC4CCC(F)(F)CC4)c(F)cc3C)cc(OCCO)n2)ccn1` [Example 63], the IC50 (Miapaca-2 cells) was ≤ 100 nM.

`Cc1cc(F)c(NC(=O)NCCC2(C)CC2)cc1-c1cc(OCCO)nc(-c2ccnc(NC(=O)C3CC3)c2)c1` [Example 76] was tested, and the IC50 (Miapaca-2 cells) was 100 to 500 nM.

In the case of `Cc1ccc(NC(=O)N2CC[C@H](C(F)(F)F)C2)cc1-c1cncc(-c2cc(NC(=O)C3CC3)ncn2)c1` [Example 195], the IC50 (H2405 cells) is reported as ≤ 100 nM and the IC50 (WM3928 cells) is reported as ≤ 100 nM.

With `Cc1ccc(NC(=O)N2CC[C@H](C(F)(F)F)C2)cc1-c1cccc(-c2cc(NC(=O)C3CC3)ncn2)c1` [Example 200] the IC50 (Miapaca-2 cells) was 100 to 500 nM and the IC50 (WM3629 cells) was ≤ 100 nM.

With `Cc1ccc(NC(=O)N2CC[C@@H](C(F)(F)F)C2)cc1-c1cccc(-c2cc(NC(=O)C3CC3)ncn2)c1` [Example 201] the IC50 (Miapaca-2 cells) was 100 to 500 nM and the IC50 (WM3629 cells) was ≤ 100 nM.

For `Cc1cc(F)c(NC(=O)N2CC[C@H](C(F)(F)F)C2)cc1-c1cncc(-c2cc(NC(=O)C3CC3)ncn2)c1` [Example 216], the IC50 (H2405 cells) was ≤ 100 nM and the IC50 (WM3928 cells) was ≤ 100 nM.

`Cc1ccc(NC(=O)N2CC[C@@H](C(C)C)C2)cc1-c1cncc(-c2cc(NC(=O)C3CC3)ncn2)c1` [Example 217] was tested, and the IC50 (WM3629 cells) was ≤ 100 nM.

`Cc1ccc(NC(=O)N2CC[C@H](C(C)C)C2)cc1-c1cncc(-c2cc(NC(=O)C3CC3)ncn2)c1` [Example 221] was tested, and the IC50 (WM3629 cells) was ≤ 100 nM.

From patent US20230357179A1, “RAF KINASE INHIBITORS AND METHODS OF USE THEREOF” (Deciphera Pharmaceuticals, LLC, priority 2021, published 2023)
